Measurements: ChEMBL document CHEMBL5727281, “N2-phenyl-pyrido[3,4-D]pyrimidine-2, 8-diamine derivatives and their use as Mps1 inhibitors” (2019)

Biological target: T1, Dual specificity protein kinase TTK (Homo sapiens, UniProt P33981)
T1 sequence (P33981 whole entry): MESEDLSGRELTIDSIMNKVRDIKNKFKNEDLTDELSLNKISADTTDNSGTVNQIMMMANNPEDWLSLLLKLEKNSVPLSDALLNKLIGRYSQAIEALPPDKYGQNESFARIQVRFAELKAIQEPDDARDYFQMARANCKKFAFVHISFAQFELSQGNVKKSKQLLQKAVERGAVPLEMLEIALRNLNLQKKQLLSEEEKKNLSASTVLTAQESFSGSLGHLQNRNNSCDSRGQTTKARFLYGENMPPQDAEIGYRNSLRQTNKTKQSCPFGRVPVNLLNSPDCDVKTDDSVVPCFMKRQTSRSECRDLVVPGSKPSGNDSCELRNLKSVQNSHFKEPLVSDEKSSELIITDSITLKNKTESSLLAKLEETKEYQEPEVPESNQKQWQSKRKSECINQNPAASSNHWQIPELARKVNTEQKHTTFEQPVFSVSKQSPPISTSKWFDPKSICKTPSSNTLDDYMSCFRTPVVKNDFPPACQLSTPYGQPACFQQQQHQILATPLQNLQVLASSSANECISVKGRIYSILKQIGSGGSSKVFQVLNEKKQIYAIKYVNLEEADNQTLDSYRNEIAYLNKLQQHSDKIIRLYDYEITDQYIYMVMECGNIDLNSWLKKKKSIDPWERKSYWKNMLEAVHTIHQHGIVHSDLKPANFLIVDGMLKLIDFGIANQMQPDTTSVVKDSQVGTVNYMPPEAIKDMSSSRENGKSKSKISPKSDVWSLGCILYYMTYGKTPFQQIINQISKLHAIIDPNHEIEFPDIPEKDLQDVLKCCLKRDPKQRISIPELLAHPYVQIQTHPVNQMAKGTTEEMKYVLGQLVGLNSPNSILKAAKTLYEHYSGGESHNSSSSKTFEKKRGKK
Experiment: The reaction was carried out for 60 min at room temperature and stopped by the addition of buffer (10 μl) containing 20 mM EDTA, 0.05% (v/v) Brij-35, in 0.1M HEPES-buffered saline (Free acid, Sigma, UK). […] The % inhibition of the compounds is calculated relative to the means of selected control wells. […] The % inhibitions at each concentration are then fitted to a 4 parameter logistic fit.

| IC50 [nM] | Structure (SMILES) |
| --- | --- |
| 3 | CCOc1cc(-c2nncn2C)ccc1Nc1ncc2cc(C)nc(N3CCC(C)(OC)CC3)c2n1 |
| 6 | CCOc1cc(-c2nncn2C)ccc1Nc1ncc2cc(C)nc(N3CC(F)(F)C3)c2n1 |
| 3 | CCOc1cc(-c2nncn2C)ccc1Nc1ncc2cc(C)nc(N3CCC(C)(C#N)C3)c2n1 (stereo not drawn) |
| 4 | CCOc1cc(-c2nncn2C)ccc1Nc1ncc2cc(C)nc(N3CC(O)(CC)C3)c2n1 |
| 2 | CCOc1cc(-c2nncn2C)ccc1Nc1ncc2cc(C)nc(N3CC4(CCCC4)C3)c2n1 |
| 2 | COc1cc(-c2cnc(C)n2C)ccc1Nc1ncc2cc(C)nc(NCC3(C)CCOC3)c2n1 (stereo not drawn) |
| 3 | CCOc1cc(-c2nncn2C)ccc1Nc1ncc2cc(C)nc(N3CCC(C#N)C3)c2n1 (stereo not drawn) |
| 2 | COc1cc(-c2cnc(C)n2C)ccc1Nc1ncc2cc(C)nc(N3CC(C)(C#N)C3)c2n1 |
